Measured values: patent US8753680B2, “Capsule for the prevention of cardiovascular diseases” (Ferrer Internacional S.A., priority 2008, dated 2014)

Key:
[1] = Degradation of acetylsalicylic acid by moisture; type: physicochemical; conditions: found in the course of the investigation
Description: Subsequent acetylsalicylic acid sublimation occurs on the surface of ACE inhibitor tablets thus inducing its chemical degradation. A partially hydrolysed polyvinyl alcohol coating film (Opadry AMB™, Colorcon) has been found useful for protecting both acetylsalicylic acid and the ACE inhibitor tablets because of its moisture barrier properties. HMG-CoA reductase inhibitor tablets in the present invention may be coated with a coloured film, such as a hydroxypropylmethyl cellulose comprising film (Opadry Orange™, Colorcon) to hide darkened appearance. Opadry AMB coatings also may comprise one or more than one pigment.

[2] = general statement, no test described; cited from earlier work

| SMILES | Degradation due to moisture [1] | Solubility in water [2] |
| --- | --- | --- |
| CC(=O)Oc1ccccc1C(=O)O [acetylsalicylic acid] | degrades to salicylic acid due to moisture | – |
| NCCCC[C@H](N[C@@H](CCc1ccccc1)C(=O)O)C(=O)N1CCC[C@H]1C(=O)O [lisinopril, 1-[N^2-[(S)-1-carboxy-3-phenylpropyl]-L-lysyl]-L-proline] | – | one of the most soluble in water |
| CCC[C@H](N[C@@H](C)C(=O)N1[C@H](C(=O)O)C[C@@H]2CCCC[C@@H]21)C(=O)OCC [perindopril, 1-ethylic ester of (2S,3aS,7aS)-1-[(S)-N-[(S)-1-carboxybutyl]alanyl]hexahydro-2-indolinecarboxylic acid] | – | freely soluble in water |
